Assay results reported in patent EP4153181B1, “PHARMACEUTICAL COMPOSITIONS COMPRISING BICTEGRAVIR” (GILEAD SCIENCES, INC., priority 2020, dated 2021).

Columns and labels:
Conditions in all cases: IV administration, mean
[1] = Plasma pharmacokinetics of BIC after single SC injection of long acting formulations (and IV infusion) in rat; type: in vivo, male Sprague-Dawley rat
Source text: (§1) Pharmacokinetics (PK) following a single BIC SC injection of solution and suspension formulations was characterized in male Sprague-Dawley rat, beagle dog, and cynomolgus monkey. The BIC injectable solution and both suspension formulations display extended-release PK following SC administration in all examined species and support a potential monthly or less frequent dosing regimen. […] Table 1. BIC Plasma Pharmacokinetic Parameters Following a Single Subcutaneous (SC) or Intramuscular (IM) Administration
This study investigated the pharmacokinetics of three formulations of bictegravir (BIC) by subcutaneous administration to determine the potential to deliver a long acting (LA) pharmacokinetic (PK) profile. […] The concentrations of BIC in plasma were determined with a liquid chromatography-tandem mass spectrometry (LC-MS/MS) method. […]
The intravenous dose was administered as a 30-minute infusion via a catheter implanted animals. […] Individual dose was calculated based on body weights recorded on the day of dose administration. […]
For estimation of pharmacokinetic parameters, concentrations reported as below the lower limit of quantification (BLQ) were assigned a value of zero if pre-dose and treated as missing thereafter. […]

[2] = Plasma pharmacokinetics of BIC after single SC or IM injection of long acting formulations in monkey; type: in vivo, cynomolgus monkey
[3] = Plasma pharmacokinetics of BIC after single SC injection of long acting formulations (and IV infusion) in dog; type: in vivo, beagle dog
Source text: as §1
This study investigated the pharmacokinetics of three formulations of bictegravir (BIC) by subcutaneous administration to determine the potential to deliver a long acting (LA) pharmacokinetic (PK) profile. BIC was administered by a 30-min intravenous (IV) infusion at 0.5 or 1 mg/kg and by subcutaneous (SC) injection of three LA formulations (e.g., NMP solution, HPMC suspension, and PVP suspension) at 10 mg/kg or 100 mg fixed dose to Male Beagle Dogs. The concentrations of BIC in plasma were determined with a liquid chromatography-tandem mass spectrometry (LC-MS/MS) method.
At dosing, the animals weighed between 7.98 and 11.6 kg. The animals from the SC leg with the PVP suspension were not fasted. […]
The intravenous dose was administered as a 30-minute infusion via a saphenous vein. […] Individual dose was calculated based on body weights recorded on the day of dose administration. […]

O=C(NCc1c(F)cc(F)cc1F)c1cn2c(c(O)c1=O)C(=O)N1[C@H]3CC[C@H](C3)O[C@@H]1C2 [BIC, (2R,5S,13aR)-8-hydroxy-7,9-dioxo-N-(2,4,6-trifluorobenzyl)-2,3,4,5,7,9,13,13a-octahydro-2,5-methanopyrido[1',2':4,5]pyrazino[2,1-b][1,3]oxazepine-10-carboxamide]
systemic elimination rate (ke1 = CL/Vss) [1]: ~ 0.0162 h^-1 | systemic elimination rate (ke1 = CL/Vss) [2]: ~ 0.253 h^-1 | systemic elimination rate (ke1 = CL/Vss) [3]: ~ 0.302 h^-1
